# In patent publication EP0029306A1, “Aminoalkyl compounds, their production and pharmaceutical compositions containing them” (GLAXO GROUP LIMITED, priority 1979, dated 1981):
# Where two headings read alike, the source gives them in different places.
# Tested on: histamine induced gastric acid secretion
# Assay: Inhibition of histamine induced gastric acid secretion in the perfused rat stomach preparation
# Type: in vivo
# Conditions: sodium pentobarbitone anaesthesia
Compound,ED50,ED50 (read-out: ED50)
"3-Phenylmethyl-5-[[2-[2-[3-(1-piperidinylmethyl)phenoxy] ethoxy]ethyl]amino]-1H-1,2,4-triazole [Example 4]",0.17 mg/kg,
"Cn1nc(N)nc1NCCCCCOc1cccc(CN2CCCCC2)c1 [1(b), 1-methyl-N^5-[5-[3-(1-piperidinyl-methyl)phenoxy]pentyl]-1H-1,2,4-triazole-3,5-diamine]",,0.19 mg/kg
Cn1nc(CO)nc1NCCCCCOc1cccc(CN2CCCCC2)c1 [2(a)],,0.2 mg/kg
"CNC(=C[N+](=O)[O-])NCCCCCOc1cccc(CN2CCCCC2)c1 [5(b), N-[5-[3-(1-Piperidinylmethyl)phenoxy]pentyl]-N^1methyl-2-nitro-l,l-ethenediamine]",0.027 mg/kg,
CC(=O)Nc1nc(NCCCCCOc2cccc(CN3CCCCC3)c2)n(C)n1 [Example 3],,0.22 mg/kg
